Assays:
Cdc25B = target: T1, Cdc25B (Homo sapiens, UniProt P30305); settings: cited from earlier work
T1 sequence (P30305 1-580): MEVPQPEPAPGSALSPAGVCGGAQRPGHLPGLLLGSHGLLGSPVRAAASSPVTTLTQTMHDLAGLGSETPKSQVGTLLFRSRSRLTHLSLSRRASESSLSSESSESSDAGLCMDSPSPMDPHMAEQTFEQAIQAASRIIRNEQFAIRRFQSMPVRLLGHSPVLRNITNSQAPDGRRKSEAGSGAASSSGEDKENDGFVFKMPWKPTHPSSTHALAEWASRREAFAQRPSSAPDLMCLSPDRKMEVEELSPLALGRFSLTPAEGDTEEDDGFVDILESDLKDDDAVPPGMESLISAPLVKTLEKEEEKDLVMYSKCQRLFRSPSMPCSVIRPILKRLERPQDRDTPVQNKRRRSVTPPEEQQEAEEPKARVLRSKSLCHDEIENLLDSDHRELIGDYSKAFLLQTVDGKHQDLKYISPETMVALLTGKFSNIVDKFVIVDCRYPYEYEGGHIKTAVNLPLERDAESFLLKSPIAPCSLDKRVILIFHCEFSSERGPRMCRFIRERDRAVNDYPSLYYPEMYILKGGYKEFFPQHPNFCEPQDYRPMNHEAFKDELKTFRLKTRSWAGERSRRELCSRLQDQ

[1] = tested on: KG1 cells (FLT3 wild type); assay: Cell proliferation, trypan blue counting, KG1; type: cell-based, human
Protocol: (a) MV4-11 and MOLM-14 FLT3-ITD positive cells, KG1, HL-60 and TF-1 FLT3 wild type cells, and K562 FLT3 negative cells were cultured in the presence of the CDC25 inhibitor IRC-083864 (200 nM). Cells were harvested each day and counted after trypan blue coloration. The graph represents three independent experiments.
Cell lines and reagents. Human acute myeloid leukemia cell lines MOLM-14 (Matsuo Y et al, Leukemia 1997) (kindly provided by Martin Carroll, University of Pennsylvania, Philadelphia, Pa., USA) MV4-11, K562 (ACC-102 and ACC-10, DSMZ, Braunschweig, Germany) and FLT3-ITD-expressing murine BaF3 cells were cultured in RPMI 1640 medium (Gibco, Life Technologies, Carlsbad, Calif., USA) supplemented with 10% fetal bovine serum (Sigma, Saint Louis, Calif., USA). TF-1 (ATCC-CRL2003) cells were cultured in RPMI 1640 medium with 10% fetal bovine serum and GM-CSF 2 ng/ml. Concerning MOLM-14 cell line, the presence of a monoallelic 21 bp FLT3-ITD mutation and of an MLL-containing ins(11; 9)(q23;p22p23) were verified (Hematology laboratory of Toulouse University Hospital, Prof E. Delabesse and Dr I. Luquet). KG1 and HL-60 (ACC-14 and ACC-3, DSMZ) cell lines were grown in Iscove's Modified Dulbecco's Medium (IMDM, Gibco) plus 20% FBS. […]
siRNA. […] Twenty-four or forty-eight hours after transfection, cells were counted (trypan blue staining), and western blotting was performed.

Mia-Paca-2 tumors = settings: intravenous and oral routes; cited from earlier work
[2] = tested on: MOLM-14 TKD cells (FLT3-ITD-D835Y); assay: Cell proliferation, MOLM-14 expressing FLT3-ITD/TKD (D835Y); type: cell-based, human; settings: 200 nM
Source text: Cells were harvested each day and counted after trypan blue staining. The graphs represent three independent experiments.
We consequently developed a cellular model consisting of MOLM-14 cells transfected with a FLT3-ITD mutant with a D835Y amino-acid substitution within the FLT3 kinase domain (FLT3-ITD-D835Y; FLT3-ITD/TKD).

Cc1nc2c(s1)C(=O)C=C(NCCCN(C)CCCNC1=CC(=O)c3nc(-c4cc(F)ccc4F)oc3C1=O)C2=O [IRC-083864]
IC50 Cdc25 enzyme type B2 (Cdc25B; B2): nanomolar range | IC50 Cdc25 enzyme type B3 (Cdc25B; B3): nanomolar range | proliferation of KG1 ([1]; 200 nM): did not decrease | proliferation of KG1 upon stimulation by FLT3 ligand ([1]; FLT3 ligand stimulation): had no effect | growth of human Mia Paca-2 xenografts (Mia-Paca-2 tumors): reduces the growth | proliferation and death of ITD/TKD cells [2]: induced cell proliferation arrest and cell death
